pIC50, pKi: −log10 of the molar value.
Experiments:
K562 = assay: cells; settings: Homo sapiens, K562, 72 h
[1] = biological target: T1, Son of sevenless homolog 1 (Homo sapiens, UniProt Q07889); assay: Inhibition of SOS1 in human Calu-1 cells assessed as reduction in pERK level incubated for 24 hrs by HTRF analysis; format: cell-based
T1 sequence (Q07889 whole entry): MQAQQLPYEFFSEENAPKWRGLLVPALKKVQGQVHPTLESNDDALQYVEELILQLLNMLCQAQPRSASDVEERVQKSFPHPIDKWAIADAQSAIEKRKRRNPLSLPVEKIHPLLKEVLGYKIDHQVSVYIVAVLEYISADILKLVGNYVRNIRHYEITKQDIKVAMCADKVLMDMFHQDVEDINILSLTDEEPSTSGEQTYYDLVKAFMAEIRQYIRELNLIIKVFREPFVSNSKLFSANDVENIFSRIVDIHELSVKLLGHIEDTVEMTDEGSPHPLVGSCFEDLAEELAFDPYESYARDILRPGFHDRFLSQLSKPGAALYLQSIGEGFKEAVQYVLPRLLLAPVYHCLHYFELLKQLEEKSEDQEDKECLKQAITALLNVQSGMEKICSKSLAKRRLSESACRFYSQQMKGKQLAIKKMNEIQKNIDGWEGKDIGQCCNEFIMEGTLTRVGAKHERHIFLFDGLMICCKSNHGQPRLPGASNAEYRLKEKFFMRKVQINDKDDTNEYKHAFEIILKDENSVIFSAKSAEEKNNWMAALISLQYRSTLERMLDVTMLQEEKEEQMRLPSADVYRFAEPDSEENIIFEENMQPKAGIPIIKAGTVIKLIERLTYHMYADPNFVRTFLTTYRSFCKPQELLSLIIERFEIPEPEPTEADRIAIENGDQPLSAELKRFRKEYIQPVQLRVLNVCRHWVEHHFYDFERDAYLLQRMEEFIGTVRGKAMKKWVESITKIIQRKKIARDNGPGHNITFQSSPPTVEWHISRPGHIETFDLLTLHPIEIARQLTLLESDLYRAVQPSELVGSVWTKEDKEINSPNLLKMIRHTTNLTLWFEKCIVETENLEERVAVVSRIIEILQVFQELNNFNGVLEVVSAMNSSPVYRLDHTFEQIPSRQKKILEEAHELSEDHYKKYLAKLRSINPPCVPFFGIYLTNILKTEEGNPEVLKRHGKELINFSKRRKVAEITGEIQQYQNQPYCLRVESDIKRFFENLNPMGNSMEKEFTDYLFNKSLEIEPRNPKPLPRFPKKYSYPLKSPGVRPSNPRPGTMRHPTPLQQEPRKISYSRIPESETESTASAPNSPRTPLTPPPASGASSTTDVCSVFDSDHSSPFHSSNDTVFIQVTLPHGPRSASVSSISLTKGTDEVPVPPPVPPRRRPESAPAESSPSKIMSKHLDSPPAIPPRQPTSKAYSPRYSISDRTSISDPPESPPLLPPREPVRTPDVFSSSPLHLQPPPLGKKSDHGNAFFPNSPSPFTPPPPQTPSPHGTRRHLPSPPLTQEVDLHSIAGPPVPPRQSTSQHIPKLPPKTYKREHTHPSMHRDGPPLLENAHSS

MIA PaCa-2 [2] = assay: Antiproliferative activity against human MIA PaCa-2 cells assessed as reduction in cell growth measured after 48 hrs by MTT assay; format: functional, cell-based; settings: MIA PaCa-2, 48 h
MIA PaCa-2 [3] = assay: Antitumor activity against human MIA PaCa-2 cells xenografted in mouse model assessed as tumor growth inhibition at 50 mg/kg, po relative to control; format: functional; settings: read-out: TGI
[4] = Half life in mouse; format: ADME, organism-based; settings: in vivo
[5] = Intrinsic clearance in mouse liver microsomes; format: ADME, Microsome; settings: read-out: CLH
[6] = biological target: von Hippel-Lindau disease tumor suppressor/Son of sevenless homolog 1 (Homo sapiens, UniProt Q07889+P40337); assay: PROTAC activity at VHL/SOS1 in human NCI-H358 cells assessed as induction of SOS1 protein degradation incubated for 24 hrs by Immunoblot analysis; format: cell-based
von Hippel-Lindau disease tumor suppressor/Son of sevenless homolog 1 (Homo sapiens, UniProt Q07889+P40337), sequence (P40337 whole entry, one chain of several): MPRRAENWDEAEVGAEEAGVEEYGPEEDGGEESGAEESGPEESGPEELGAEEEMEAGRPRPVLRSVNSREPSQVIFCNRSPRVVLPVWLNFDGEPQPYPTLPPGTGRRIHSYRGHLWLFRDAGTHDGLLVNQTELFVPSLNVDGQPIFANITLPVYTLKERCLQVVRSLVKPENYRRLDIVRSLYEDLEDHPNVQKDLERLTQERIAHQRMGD

[7] = biological target: von Hippel-Lindau disease tumor suppressor/Son of sevenless homolog 1 (Homo sapiens, UniProt Q07889+P40337, G12S); assay: PROTAC activity at VHL/SOS1 in human NCI-H358 cells harboring KRAS G12S mutant assessed as induction of SOS1 degradation incubated for 24 hrs by immunoblotting analysis; format: cell-based
von Hippel-Lindau disease tumor suppressor/Son of sevenless homolog 1 (Homo sapiens, UniProt Q07889+P40337, G12S), sequence (P40337 whole entry, looked up, stated change not applied, one chain of several): as the sequence (P40337 whole entry, one chain of several) above

[8] = biological target: von Hippel-Lindau disease tumor suppressor/Son of sevenless homolog 1 (Homo sapiens, UniProt Q07889+P40337, G12C); assay: PROTAC activity at VHL/SOS1 in human NCI-H358 cells harboring KRAS G12C mutant assessed as induction of SOS1 degradation incubated for 24 hrs by immunoblotting analysis; format: cell-based
von Hippel-Lindau disease tumor suppressor/Son of sevenless homolog 1 (Homo sapiens, UniProt Q07889+P40337, G12C), sequence (P40337 whole entry, looked up, stated change not applied, one chain of several): as the sequence (P40337 whole entry, one chain of several) above

[9] = biological target: von Hippel-Lindau disease tumor suppressor/Son of sevenless homolog 1 (Homo sapiens, UniProt Q07889+P40337, G12D); assay: PROTAC activity at VHL/SOS1 in human NCI-H358 cells harboring KRAS […] mutant assessed as induction of SOS1 degradation incubated for 24 hrs by immunoblotting analysis; format: cell-based
von Hippel-Lindau disease tumor suppressor/Son of sevenless homolog 1 (Homo sapiens, UniProt Q07889+P40337, G12D), sequence (P40337 whole entry, looked up, stated change not applied, one chain of several): as the sequence (P40337 whole entry, one chain of several) above

[10] = biological target: von Hippel-Lindau disease tumor suppressor/Son of sevenless homolog 1 (Homo sapiens, UniProt Q07889+P40337, G12V); assay: PROTAC activity at VHL/SOS1 in human NCI-H358 cells harboring KRAS G12V mutant assessed as induction of SOS1 degradation incubated for 24 hrs by immunoblotting analysis; format: cell-based
von Hippel-Lindau disease tumor suppressor/Son of sevenless homolog 1 (Homo sapiens, UniProt Q07889+P40337, G12V), sequence (P40337 whole entry, looked up, stated change not applied, one chain of several): as the sequence (P40337 whole entry, one chain of several) above

[11] = biological target: von Hippel-Lindau disease tumor suppressor/Son of sevenless homolog 1 (Homo sapiens, UniProt Q07889+P40337, G12R); assay: PROTAC activity at VHL/SOS1 in human NCI-H358 cells harboring KRAS G12R mutant assessed as induction of SOS1 degradation incubated for 24 hrs by immunoblotting analysis; format: cell-based
von Hippel-Lindau disease tumor suppressor/Son of sevenless homolog 1 (Homo sapiens, UniProt Q07889+P40337, G12R), sequence (P40337 whole entry, looked up, stated change not applied, one chain of several): as the sequence (P40337 whole entry, one chain of several) above

[12] = biological target: von Hippel-Lindau disease tumor suppressor/Son of sevenless homolog 1 (Homo sapiens, UniProt Q07889+P40337, G13D); assay: PROTAC activity at VHL/SOS1 in human NCI-H358 cells harboring KRAS G13D mutant assessed as induction of SOS1 degradation incubated for 24 hrs by immunoblotting analysis; format: cell-based
von Hippel-Lindau disease tumor suppressor/Son of sevenless homolog 1 (Homo sapiens, UniProt Q07889+P40337, G13D), sequence (P40337 whole entry, looked up, stated change not applied, one chain of several): as the sequence (P40337 whole entry, one chain of several) above

NCI-H460 = assay: Antiproliferative activity against human NCI-H460 cells harboring KRAS […] mutant assessed as inhibition of cell proliferation incubated for 7 days by CellTiterGlo-3D proliferation assay; format: functional, cell-based; settings: NCI-H460, 168 h
CAL-62 = assay: Antiproliferative activity against human CAL-62 cells harboring KRAS G12R mutant assessed as inhibition of cell proliferation incubated for 7 days by CellTiterGlo-3D proliferation assay; format: functional, cell-based; settings: CAL-62, 168 h
[13] = AUC in mouse at 10 mg/kg, ip by LC-MS analysis; format: ADME, organism-based; settings: in vivo
[14] = Half life in mouse at 10 mg/kg, ip by LC-MS analysis; format: ADME, organism-based; settings: in vivo
NCI-H358 [15] = assay: Antitumor activity against human NCI-H358 cells harboring KRAS […] mutant xenografted in mouse model assessed as tumor growth inhibition at 10 mg/kg, ip administered once daily for 3 weeks relative to control; format: functional; settings: NCI-H358, 504 h, read-out: TGI
NCI-H358 [16] = assay: Antitumor activity against human NCI-H358 cells harboring KRAS G12V mutant xenografted in mouse model assessed as tumor growth inhibition at 10 mg/kg, ip administered once daily for 3 weeks relative to control; format: functional; settings: NCI-H358, 504 h, read-out: TGI
[17] = biological target: T1, Son of sevenless homolog 1; assay: Binding affinity to SOS1 (unknown origin) assessed as inhibition constant by HTRF method
MIA PaCa-2 [18] = assay: Antitumor activity against human MIA PaCa-2 cells xenografted in CD-1 mouse assessed as in tumor growth inhibition at 20 mg/kg, po BID for 22 days relative to control; format: functional; settings: MIA PaCa-2, 528 h, time 22 day, read-out: TGI
MIA PaCa-2 [19] = assay: Antitumor activity against human MIA PaCa-2 cells xenografted in CD-1 mouse assessed as tumor inhibition at 20 mg/kg, po BID for 22 days relative to control; format: functional; settings: MIA PaCa-2, 528 h, time 22 day, read-out: TGI
[20] = biological target: T1, Son of sevenless homolog 1; assay: Inhibition of SOS1 (unknown origin) by HTRF assay
[21] = biological target: Epidermal growth factor receptor (Homo sapiens, UniProt P00533); assay: Inhibition of EGFR (unknown origin)
Epidermal growth factor receptor, sequence (P00533 whole entry): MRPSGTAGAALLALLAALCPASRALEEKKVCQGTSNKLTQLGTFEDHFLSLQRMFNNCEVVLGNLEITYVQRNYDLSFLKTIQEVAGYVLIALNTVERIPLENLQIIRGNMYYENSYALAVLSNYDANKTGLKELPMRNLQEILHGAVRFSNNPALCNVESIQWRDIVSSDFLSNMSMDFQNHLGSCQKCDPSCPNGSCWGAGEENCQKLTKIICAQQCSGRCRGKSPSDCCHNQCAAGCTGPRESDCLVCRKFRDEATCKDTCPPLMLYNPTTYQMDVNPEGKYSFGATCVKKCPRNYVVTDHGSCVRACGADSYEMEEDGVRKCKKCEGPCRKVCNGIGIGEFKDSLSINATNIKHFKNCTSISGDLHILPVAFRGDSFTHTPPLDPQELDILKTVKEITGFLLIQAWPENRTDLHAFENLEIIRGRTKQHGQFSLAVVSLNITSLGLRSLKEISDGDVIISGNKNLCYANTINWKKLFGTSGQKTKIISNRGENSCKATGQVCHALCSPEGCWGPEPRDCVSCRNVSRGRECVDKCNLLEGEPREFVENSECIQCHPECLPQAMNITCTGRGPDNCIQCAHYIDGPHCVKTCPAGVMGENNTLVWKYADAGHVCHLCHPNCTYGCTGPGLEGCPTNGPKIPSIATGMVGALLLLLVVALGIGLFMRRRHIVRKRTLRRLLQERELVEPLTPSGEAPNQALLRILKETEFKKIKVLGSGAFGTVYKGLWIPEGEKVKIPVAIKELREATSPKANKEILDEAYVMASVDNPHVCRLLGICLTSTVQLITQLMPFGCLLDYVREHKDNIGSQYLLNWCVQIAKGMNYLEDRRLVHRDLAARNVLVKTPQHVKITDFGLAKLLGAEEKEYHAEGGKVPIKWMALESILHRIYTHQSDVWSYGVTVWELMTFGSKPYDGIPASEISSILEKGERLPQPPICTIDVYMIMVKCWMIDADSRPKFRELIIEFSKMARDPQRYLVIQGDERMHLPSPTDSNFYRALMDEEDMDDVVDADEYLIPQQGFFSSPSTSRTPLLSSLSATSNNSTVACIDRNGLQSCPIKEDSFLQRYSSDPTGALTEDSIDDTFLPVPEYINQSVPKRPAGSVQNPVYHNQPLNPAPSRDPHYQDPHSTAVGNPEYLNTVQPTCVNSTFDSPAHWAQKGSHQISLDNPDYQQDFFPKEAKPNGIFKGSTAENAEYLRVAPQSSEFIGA

MIA PaCa-2 [22] = assay: Antiproliferative activity against human MIA PaCa-2 cells harboring KRAS G12C mutant assessed as reduction in cell viability incubated for 72 hrs by MTT assay; format: functional, cell-based; settings: MIA PaCa-2, 72 h
[23] = Clearance in CD-1 mouse at 5 mg/kg, ip measured after 24 hrs by LC-MS/MS analysis; format: ADME, organism-based; settings: in vivo
[24] = Volume of distribution at steady state in CD-1 mouse at 5 mg/kg, ip measured after 24 hrs by LC-MS/MS analysis; format: ADME, organism-based; settings: in vivo
[25] = Oral bioavailability in CD-1 mouse at 20 mg/kg measured upto 24 hrs by LC/MS/MS analysis; format: ADME, organism-based; settings: in vivo
[26] = Half life in CD-1 mouse at 20 mg/kg, po measured after 24 hrs by LC-MS/MS analysis; format: ADME, organism-based; settings: in vivo
MIA PaCa-2 [27] = assay: Antitumor activity against human MIA PaCa-2 cells xenografted in CD-1 mouse assessed as tumor growth inhibition at 20 mg/kg BID for 22 days relative to control; format: functional; settings: MIA PaCa-2, 528 h, time 22 day, read-out: TGI

Work on `COc1cc2nc(C)nc(N[C@H](C)c3cc(N)cc(C(F)(F)F)c3)c2cc1O[C@H]1CCOC1` yielded a pIC50 (K562) of 7.43.
Work on `Cc1nc(N[C@H](C)c2cccc(C(F)F)c2F)c2cc3c(cc2n1)OC[C@H]1CN(C(=O)C2(C#N)CC2)CCN31` yielded a pIC50 [1] of 8.30, a pIC50 (MIA PaCa-2 [2]) of 6.75 and an inhibition in vivo at 50 mg/kg (MIA PaCa-2 [3]) of 71%. The half-life [4] was 1.12 h and the CLint scaled [5] was 37.2 mL/min/kg.
`COc1cc2nc(C)nc(N[C@H](C)c3cc(N)cc(C(F)(F)F)c3)c2cc1C1CCN(C(=O)CCCCCC(=O)N[C@H](C(=O)N2C[C@H](O)C[C@H]2C(=O)N[C@@H](C)c2ccc(-c3scnc3C)cc2)C(C)(C)C)CC1` gave a DC50 [6] of 15.7 nM, a DC50 [7] of 8.41 nM and a DC50 [8] of 8.41 nM. For the same molecule, the DC50 [9] was 8.41 nM, the DC50 [10] was 8.41 nM and the DC50 [11] was 8.41 nM. It also gave a DC50 [12] of 8.41 nM, a pIC50 (NCI-H460) of 8.16 and a pIC50 (CAL-62) of 8.16. The AUC [13] was 14100 ng·h/mL, the half-life [14] was 9.69 h and the inhibition in vivo at 10 mg/kg (NCI-H358 [15]) was over 65%. The inhibition in vivo at 10 mg/kg (NCI-H358 [16]) was over 65%.
In the case of `COC(=O)N1CCN2c3cc4c(N[C@H](C)c5cccc(C(F)F)c5F)nnc(C)c4cc3OC[C@H]2C1`, the pKi [17] was 8.41, the inhibition in vivo at 20 mg/kg (MIA PaCa-2 [18]) was 87% and the inhibition in vivo at 20 mg/kg (MIA PaCa-2 [19]) was 104%. It also gave a pIC50 [1] of 8.80, a pIC50 [20] of 8.96 and a pIC50 [21] of under 5.00. It also gave a pIC50 (MIA PaCa-2 [22]) of 7.37, a CL/F [23] of 1.7 mL/min/kg and a Vdss [24] of 0.33 L/kg. The bioavailability [25] was 65.8%, the half-life [26] was 6.4 h and the inhibition in vivo at 20 mg/kg (MIA PaCa-2 [27]) was 42%.

— ChEMBL document CHEMBL5634118, “Inhibition of Son of Sevenless Homologue 1 (SOS1): Promising therapeutic treatment for KRAS-mutant cancers” (Eur J Med Chem, 2023)
